Measurements reported in patent publication EP1290011B1 (Oncopeptides AB, priority 2000, dated 2001).
Where a name gives a salt, the structure may show the parent alone. Read-outs that look alike come from different tables or passages of the source.

Key:
Test in all cases: cells
[1] = tested on: solid tumour fresh human tumour specimens (PHTC); settings: 72 h, read-out: Tumour cell survival index % Solid
CEM/S = assay type: cell-based, human
CEM/R = assay type: cell-based, human
ACHN = assay type: cell-based, human
H69 = assay type: cell-based, human
H69AR = assay type: cell-based, human
8226S = assay type: cell-based, human
8226LR5 = assay type: cell-based, human
U937vcr = assay type: cell-based, human
[2] = tested on: panel of ten human tumour cell lines; assay type: cell-based; settings: read-out: MEAN IC50
NCI-H23 = assay type: cell-based
U-1752 = assay type: cell-based
NCI-H611 = assay type: cell-based
NCI-H157 = assay type: cell-based
U-1810 = assay type: cell-based
NCI-H125 = assay type: cell-based
U-1568 = assay type: cell-based
U1285 = assay type: cell-based
U-1906E = assay type: cell-based
U1690 = assay type: cell-based
U1906L = assay type: cell-based
8226Dox40 = assay type: cell-based, human
U937gtb = assay type: cell-based, human
[3] = tested on: hematological fresh human tumour specimens (PHTC); settings: 72 h, read-out: Tumour cell survival index % Hematological

## Nc1ccn([C@@H]2O[C@H](CO)[C@@H](O)[C@@H]2O)c(=O)n1 [AraC]
[1]
  viability at 10.3 µM: 102%

## N.N.[Cl][Pt][Cl] [Cisplatin, cisplatin, reference compound]
CEM/S; read-out: IC50
  IC50: 2500 nM
CEM/R; read-out: IC50
  IC50: 1870 nM
ACHN; read-out: IC50
  IC50: 17800 nM
H69; read-out: IC50
  IC50: 92500 nM
H69AR; read-out: IC50
  IC50: 13500 nM
8226S; read-out: IC50
  IC50: 14800 nM
8226LR5; read-out: IC50
  IC50: 16300 nM
U937vcr; read-out: IC50
  IC50: 3000 nM
[2]
  IC50: 18000 nM
NCI-H23; read-out: IC50
  IC50: 11600 nM
U-1752; read-out: IC50
  IC50: 11700 nM
NCI-H611; read-out: IC50
  IC50: 50700 nM
NCI-H157; read-out: IC50
  IC50: 27000 nM
U-1810; read-out: IC50
  IC50: 10300 nM
NCI-H125; read-out: IC50
  IC50: 7000 nM
U-1568; read-out: IC50
  IC50: 23400 nM
U1285; read-out: IC50
  IC50: 2930 nM
U-1906E; read-out: IC50
  IC50: 21100 nM
U1690; read-out: IC50
  IC50: 6730 nM

## CC(=O)O[C@@]12CO[C@@H]1C[C@H](O)[C@@]1(C)C(=O)[C@H](O)C3=C(C)[C@@H](OC(=O)[C@H](O)[C@@H](NC(=O)OC(C)(C)C)c4ccccc4)C[C@@](O)([C@@H](OC(=O)c4ccccc4)[C@H]21)C3(C)C [Docetaxel, docetaxel]
NCI-H23; Homo sapiens, NCI-H23
  IC50: 1500 nM
U-1752
  IC50: 460 nM
NCI-H611
  IC50: 1100 nM
NCI-H157; Homo sapiens, NCI-H157
  IC50: 100 nM
U-1810; U-1810
  IC50: 100 nM
NCI-H125; Homo sapiens, NCI-H125
  IC50: 160 nM
U-1568
  IC50: 5940 nM
U1906L
  IC50: 100 nM
U1285
  IC50: 100 nM
U-1906E
  IC50: 100 nM
U1690
  IC50: 7700 nM
[1]
  viability at 6.2 µM: 67%

## COc1cccc2c1C(=O)c1c(O)c3c(c(O)c1C2=O)C[C@@](O)(C(=O)CO)C[C@@H]3O[C@H]1C[C@H](N)[C@H](O)[C@H](C)O1 [Doxorubicin, doxorubicin]
CEM/S; Homo sapiens, 72 h
  IC50: 180 nM
CEM/R; Homo sapiens, 72 h
  IC50: 1310 nM
ACHN; Homo sapiens, ACHN, 72 h
  IC50: 14200 nM
H69; Homo sapiens, NCI-H69, 72 h
  IC50: 1660 nM
H69AR; Homo sapiens, H69AR, 72 h
  IC50: 11600 nM
8226S; Homo sapiens, 72 h
  IC50: 130 nM
8226Dox40; Homo sapiens, 72 h
  IC50: 4970 nM
8226LR5; Homo sapiens, 72 h
  IC50: 550 nM
U937gtb; Homo sapiens, U-937/GTB, 72 h
  IC50: 110 nM
U937vcr; Homo sapiens, 72 h
  IC50: 420 nM
[2]; Homo sapiens
  IC50: 3510 nM
NCI-H23; Homo sapiens, NCI-H23
  IC50: 140 nM
U-1752
  IC50: 420 nM
NCI-H611
  IC50: 183000 nM
NCI-H157; Homo sapiens, NCI-H157
  IC50: 200 nM
U-1810; U-1810
  IC50: 22800 nM
NCI-H125; Homo sapiens, NCI-H125
  IC50: 500 nM
U-1568
  IC50: 183000 nM
U1906L
  IC50: 920 nM
U1285
  IC50: 520 nM
U-1906E
  IC50: 440 nM
U1690
  IC50: 2210 nM
[3]
  viability at 0.92 µM: 29%
[1]
  viability at 0.92 µM: 97%

## COc1cc([C@@H]2c3cc4c(cc3[C@@H](O[C@@H]3O[C@@H]5CO[C@@H](C)O[C@H]5[C@H](O)[C@H]3O)[C@H]3COC(=O)[C@H]23)OCO4)cc(OC)c1O [Etoposide, etoposide]
[3]
  viability at 8.5 µM: 47%
[1]
  viability at 8.5 µM: 81%

## O=c1[nH]cc(F)c(=O)[nH]1 [Example 5-FU, 5-FU, reference compound]
CEM/S; CEM/S, 72 hours incubation, read-out: IC50
  IC50: 57400 nM
CEM/R; CEM/R, 72 hours incubation, read-out: IC50
  IC50: 44500 nM
ACHN; ACHN, primary resistant renal carcinoma, 72 hours incubation, read-out: IC50
  IC50: 769000 nM
H69; H69, small cell lung cancer, 72 hours incubation, read-out: IC50
  IC50: 769000 nM
H69AR; H69AR, doxorubicin resistance, 72 hours incubation, read-out: IC50
  IC50: 769000 nM
8226S; 8226S, myeloma, 72 hours incubation, read-out: IC50
  IC50: 75600 nM
8226Dox40; 8226Dox40, doxorubicin resistance, 72 hours incubation, read-out: IC50
  IC50: 60600 nM
8226LR5; 8226LR5, melphalan resistance, 72 hours incubation, read-out: IC50
  IC50: 5300 nM
U937vcr; U937vcr, vincristine resistance, 72 hours incubation, read-out: IC50
  IC50: 572000 nM
[2]; mean over the ten cell lines
  IC50: 321000 nM

## CCOC(=O)[C@H](Cc1ccccc1)NC(=O)[C@@H](N)Cc1ccc(N(CCCl)CCCl)cc1 [JV22, L-Melphalanyl-L-phenylalanine ethyl ester hydrochloride]
CEM/S; read-out: IC50
  IC50: 20 nM
CEM/R; read-out: IC50
  IC50: 10 nM
ACHN; read-out: IC50
  IC50: 170 nM
H69; read-out: IC50
  IC50: 40 nM
H69AR; read-out: IC50
  IC50: 390 nM
8226S; read-out: IC50
  IC50: 670 nM
8226Dox40; read-out: IC50
  IC50: 1380 nM
8226LR5; read-out: IC50
  IC50: 1860 nM
U937gtb; read-out: IC50
  IC50: 140 nM
U937vcr; read-out: IC50
  IC50: 130 nM
[2]
  IC50: 480 nM
